Data on seven compounds can be found in article PMC4445002, “Efficient inhibition of tumor angiogenesis and growth by a synthetic peptide blocking S100A4-methionine aminopeptidase 2 interaction” (Molecular Therapy. Methods & Clinical Development, 2015).

The test system of assay [1] is MetAP2. Also on record: method as in PMID 16790550, PMID 22229417. The conditions noted are these: cited from earlier work.
In assay [2] the test system is MetAP2. The conditions noted are these: cited from earlier work.
The subject of a further assay is ERK1/2. On the set-up: method as in PMID 19716858. The note with it: cited from earlier work.
Assay [3] deals with S100A4. Put plainly: FRET acceptor-photobleaching analysis in live HeLa cells. The note with it: ECFP fusion cotransfected with EYFP-S100A4, acceptor photobleaching, n = 8–11, **P < 0.01, ***P < 0.001. The class given is binding.
Assay [4] concerns S100A4-MetAP2 interaction. Briefly: In vitro GST pull-down binding assay S100A4-MetAP2.
Assay [5] relates to S100A4. Briefly: Surface plasmon resonance binding to GST-S100A4. The note with it: Biacore 3000, captured GST-S100A4, SBD 1 mmol/l, HBS-P pH 7.4, with or without 1 mmol/l CaCl2, 25 °C, duplicated experiment. The text has this: The binding of the SBD peptide to S100A4 was examined by Surface plasmon resonance (SPR) with a Biacore 3000 biosensor and GST Capture kit (GE Healthcare, Little Chalfont, UK) according to the manufacturer’s instructions. Goat anti-GST antibody was immobilized on two flow cells of the sensor chip (CM-5) using a standard amine coupling procedure, and then recombinant GST-S100A4 or GST as a negative control was captured. The SBD peptide (1 mmol/l) in HBS-P running buffer (10 mmol/l Hepes, pH 7.4, 150 mmol/l NaCl, 0.005% P20) in the presence or absence of 1 mmol/l CaCl2 was injected over two flow cells of the chip at a flow rate of 10 ml/minute at 25 °C for 5 minutes. The response from the control surface was subtracted, and the data plotted as Resonance Units (RU).

Consider `CO[C@@H]1[C@H](OC(=O)NC(=O)CCl)CC[C@]2(CO2)[C@H]1[C@@]1(C)O[C@@H]1CC=C(C)C` [TNP-470], for which, in the assay on MetAP2 [1], the antiangiogenic activity result was “potent antiangiogenic agents”. With `CO[C@@H]1[C@H](OC(=O)/C=C/C=C/C=C/C=C/C(=O)O)CC[C@]2(CO2)[C@H]1[C@@]1(C)O[C@@H]1CC=C(C)C` [Fumagillin, fumagillin], in the assay on MetAP2 [2], the “effect on MetAP2 auto-proteolytic activity” value is recorded as “inhibits MetAP2’s auto-proteolytic activity” and the “effect on MetAP2 turnover rate” value was “decreases its turnover rate”. In addition, in the assay on MetAP2 [1], the antiangiogenic activity result is reported as “potent antiangiogenic agents”. Further, in the assay with ERK1/2, the “effect on ERK1/2 activity and cell growth” value was “inhibition of the activity of ERK1/2 and cell growth”. Turning to “ECFP-NBD: NBD sequence subcloned into pECFP-C1, expressed in HeLa cells (REAAEAHRQVRKYVMSWIKPGMTMIEICEKLEDCSRKLI; left off: ECFP, end not stated, kept)”, the “FRET efficiency with EYFP-S100A4 vs negative controls” value with S100A4 [3] is listed as “significantly higher than those in respective negative controls”. The same measure, in the same setting: with “ECFP-CBD: CBD sequence subcloned into pECFP-C1, expressed in HeLa cells (TMIEICEKLEDCSRKLIKENGLNAGLAFPTGCSLNNCA; left off: ECFP, end not stated, kept)” the entry was “but not for ECFP-CBD/EYFP-S100A4 (orange bars), were significantly higher than those in respective negative controls”. With methionine aminopeptidase 2 [MetAP2], the “binding of MetAP2 to S100A4 (GST pull-down)” value in assay [4] ([35S]MetAP2, GST/S100A4, 1 mmol/l CaCl2 or 1 mmol/l EDTA) is “S100A4 bound to MetAP2 in a Ca^2+-dependent manner”. For “SBD: 60 amino acid residues spanning from Arg170 to Ala229 of MetAP2 (REAAEAHRQVRKYVMSWIKPGMTMIEICEKLEDCSRKLIKENGLNAGLAFPTGCSLNNCA)”, the “inhibition of S100A4-MetAP2 interaction (GST pull-down)” value in assay [4] ([35S]MetAP2, GST/S100A4, 1 mmol/l CaCl2, peptide at 25-fold molar excess of MetAP2) was “efficiently blocked the interaction between S100A4 and MetAP2”. Besides, the “binding to S100A4 (SPR)” value in the assay with S100A4 [5] was “occurred only in the presence of Ca^2+”. “ECFP-SBD: SBD sequence subcloned into pECFP-C1, expressed in HeLa cells (REAAEAHRQVRKYVMSWIKPGMTMIEICEKLEDCSRKLIKENGLNAGLAFPTGCSLNNCA; left off: ECFP, end not stated, kept)”: the “FRET efficiency with EYFP-S100A4 vs negative controls” value with S100A4 [3] is “significantly higher than those in respective negative controls”.
